Assay results from the NIST ThermoML archive (doi:10.1021/je400260c).
± gives the expanded uncertainty stated by the source.

conditions: Crystal; DTA

Compound | Normal melting temperature
CCCCCCCCCCCCCCCCCC(=O)O [octadecanoic acid] | 69.8 ± 0.5 °C
CCCCCCCCCCCCCCCC(=O)O [hexadecanoic acid] | 63 ± 1.1 °C
CCCCCCCCCCCC(=O)O [dodecanoic acid] | 44.6 ± 0.9 °C
CCCCCCCCCCCCCC(=O)O [tetradecanoic acid] | 54.4 ± 0.5 °C
